Patent US20140329863A1 (priority 2011, published 2014)
Like-named read-outs stand apart in the source and are kept apart here.

Legend:
[1] = tested on: PrP^Sc in dividing ScN2a-cl3 cells; assay type: cell-based, mouse; design: Dividing ELISA pEC50 (μM) 1st Expt. / Dividing ELISA pEC50 (μM) 2nd Expt. / Dividing ELISA pEC50 (μM) 3rd Expt. / Dividing ELISA pEC50 (μM) Mean: unit not given here
[2] = tested on: PrP^Sc in nondividing ScN2a-cl3 cells; assay type: cell-based, mouse; conditions: read-out: Non-Dividing ELISA EC50 (μM) Mean (n = 3); ScN2a-c13 non-dividing cells; mean n = 3
N2a-cl3 cells = assay: cells; conditions: Mus musculus, N2a-cl3, read-out: Dividing Calcein EC50 (μM) Mean (n = 3)
[3] = Table 29, 2-AMT analogs tested for potency, usually n = 3 or more
[4] = ScN2a-cl3 dividing cells, 1st determination
[5] = ScN2a-cl3 dividing cells, 2nd determination
[6] = ScN2a-cl3 dividing cells, 3rd determination
[7] = ScN2a-cl3 dividing cells, mean of three determinations
[8] = read-out: Dividing ELISA EC50 (μM) 1st Expt., ScN2a-cl3 dividing cells, 1st determination
[9] = read-out: Dividing ELISA EC50 (μM) 2nd Expt., ScN2a-cl3 dividing cells, 2nd determination
[10] = read-out: Dividing ELISA EC50 (μM) 3rd Expt., ScN2a-cl3 dividing cells, 3rd determination
[11] = read-out: Dividing ELISA EC50 (μM) Mean, ScN2a-cl3 dividing cells, mean of three determinations

Row | SMILES | melting point [°C] | EC50 ([1]; AMT analogs tested for potency) [µM] | EC50 [1, 3] [µM] | EC50 [2] [µM] | EC50 (N2a-cl3 cells) [µM] | Dividing ELISA pEC50 (μM) 1st Expt. [1, 4] | Dividing ELISA pEC50 (μM) 2nd Expt. [1, 5] | Dividing ELISA pEC50 (μM) 3rd Expt. [1, 6] | Dividing ELISA pEC50 (μM) Mean [1, 7] | EC50 [1, 8] [µM] | EC50 [1, 9] [µM] | EC50 [1, 10] [µM] | EC50 [1, 11] [µM]
1 | COc1ccc(-c2csc(Nc3ccc(C)cn3)n2)c(OC)c1 [IND74, [4-(2,4-Dimethoxy-phenyl)-thiazol-2-yl]-(5-methyl-pyridin-2-yl)-amine] | 157 to 158 | 3.13 | 3.13 | – | – | – | – | – | – | – | – | – | –
2 | Cc1ccnc(Nc2nc(-c3ccc(OC(F)(F)F)cc3)cs2)c1 [IND78, (4-Methyl-pyridin-2-yl)-[4-(4-trifluoromethoxy-phenyl)-thiazol-2-yl]-amine] | 275 to 282 | > 32 | > 32 | – | – | – | – | – | – | – | – | – | –
3 | COc1ccnc(Nc2nc(-c3ccncc3)cs2)c1 [IND111, (4-Methoxy-pyridin-2-yl)-(4-pyridin-4-yl-thiazol-2-yl)-amine] | 190 to 192 | 0.605 | – | – | – | – | – | – | – | – | – | – | –
4 | COc1ccc(Nc2nc(-c3ccncc3)cs2)nc1 [IND119, (5-Methoxy-pyridin-2-yl)-(4-pyridin-4-yl-thiazol-2-yl)-amine] | 213 to 214 | 1.32 | – | – | – | – | – | – | – | – | – | – | –
5 | COc1ccc(Nc2nc(-c3cc4ccccc4o3)cs2)nc1 [IND121, (4-Benzofuran-2-yl-thiazol-2-yl)-(5-methoxy-pyridin-2-yl)-amine] | 185 to 186 | 1.74 | – | – | – | – | – | – | – | – | – | – | –
6 | COc1ccc(Nc2nc(-c3ccc(-c4ccccc4)cc3)cs2)nc1 [IND122, (4-Biphenyl-4-yl-thiazol-2-yl)-(5-methoxy-pyridin-2-yl)-amine] | 212 to 213 | 0.432 | – | – | – | – | – | – | – | – | – | – | –
7 | COc1ccc(-c2csc(Nc3cccc(C)n3)n2)cc1OC [compound 4, [4-(3,4-dimethoxyphenyl)-thiazol-2-yl]-(6-methylpyridin-2-yl)-amine] | 264 to 266 | – | – | > 32 | > 32 | 5.25 | 5.92 | 5.65 | 5.61 | 5.62 | 1.19 | 2.22 | 3.01
8 | COc1ccc(-c2csc(Nc3ccccn3)n2)cc1OC [compound 6, [4-(3,4-dimethoxyphenyl)-thiazol-2-yl]pyridin-2-yl-amine] | 211 to 214 | – | – | > 32 | > 32 | – | – | – | – | 11.8 | 6.47 | 6.38 | 8.22
9 | COc1ccc(-c2csc(Nc3ccncc3)n2)cc1OC [compound 8, [4-(3,4-dimethoxyphenyl)-thiazol-2-yl]pyridin-4-yl-amine] | 205 to 207 | – | – | > 32 | > 32 | >4.5 | 4.60 | 4.57 | – | > 32 | 25.2 | 26.9 | > 28
10 | COc1ccc(-c2csc(Nc3ccccc3)n2)cc1OC [compound 9, [4-(3,4-dimethoxyphenyl)-thiazol-2-yl]-phenyl-amine] | 170 to 174 | – | – | > 32 | > 32 | 5.13 | 5.14 | 5.35 | 5.21 | 7.4 | 7.29 | 4.45 | 6.38
11 | COc1ccc(-c2csc(Nc3ncccn3)n2)cc1OC [compound 10, [4-(3,4-dimethoxyphenyl)-thiazol-2-yl]pyrimidin-2-yl-amine] | 225 to 228 | – | – | > 32 | > 32 | 5.49 | 5.17 | 5.73 | 5.46 | 3.25 | 6.71 | 1.85 | 3.94
